Assay results: patent publication US20070197646A1, “SUBSTITUTED TARAXASTANES USEFUL FOR TREATING VIRAL INFECTIONS” (ACHILLION PHARMACEUTICALS, INC., priority 2006, published 2007)

Experiments:
mock-infected cells = test: Assessment of cytotoxicity (cell viability in parallel); assay type: cell-based
Protocol: (§1) Virology studies are preformed to assess the antiviral potency substituted heterobetulinic acids. The antiviral effect of these compounds is evaluated by parallel studies of inhibition of viral replication and cell viability. Viruses and cells for use in these assays may be obtained from the NIH AIDS Reagent Program.
Plates are incubated at 37° C. in a humidified CO2 incubator for six days. Following incubation of the HIV-1 infected cells with the compound cell viability is assessed using a calorimetric assay of metabolic activity, such as an XTT, MTT or WST-1 assay, or a BrdU incorporation assay. Cytotoxicity of the compound is determined in parallel by measurement of the viability of mock-infected cells treated with the compound. Uninfected cells without compounds are used for a 100% viability control. Infected cells to which no compound is added provide a value for 100% of cell death due to viral infection. The number of surviving or viable cells is quantified by a tetrazolium-based colorimetric method using the CellTiter96 reagent (Promega, Madison, Wis.).

HIV-1 = test: Inhibition of early phase virus replication (MAGI cell β-gal indicator assay); assay type: cell-based; details: Human immunodeficiency virus 1; MAGI cells, MOI of 0.00125
Protocol: as §1
The effect of compounds on the early phase virus replication, from virus particle attachment through early gene, Tat expression, are evaluated using a CD4-positive LTR-β-galatosidase-expressing HeLa (MAGI) cell indicator line. This assay, described previously to assess the level of β-gal expression, has been modified and adopted in our laboratory. β-gal levels are quantified by photon detection assay, with virus infected cells that are not treated with a capsid formation inhibitor giving the highest level of expression. […]
MAGI Cells are trypsinization and counted using the trepan blue exclusion method, and resuspended at a pre-determined concentration (usually 2×10^4 cells/well) in 10% FBS complete RPMI 1640. […]
The viruses are diluted to a pre-determined MOI/well, typically 0.01 to 1, in Pre-MAGI media plus 20 μg/well DEAE-dextran. […]
Plates are incubated at room temperature (25° C.) for 60-90 minutes or until constant light emission is reached. Plate(s) are read in a luminometer and measured for 0.1-1.0 sec/well.

Row | Structure (SMILES) | cytotoxicity (mock-infected cells) | EC50 (HIV-1) [nM]
1 | CC1=CC[C@]2(C(=O)O)CC[C@]3(C)[C@H](CC[C@@H]4[C@@]5(C)CCC(OC(=O)CC(C)(C)C(=O)O)C(C)(C)[C@@H]5CC[C@]43C)[C@H]2[C@@H]1C (stereo partly shown) [Compound 11] | Neither compound was cytotoxic | < 2000
2 | CC1=CC[C@]2(CO)CC[C@]3(C)[C@H](CC[C@@H]4[C@@]5(C)CC[C@H](OC(=O)CC(C)(C)C(=O)O)C(C)(C)[C@@H]5CC[C@]43C)[C@H]2[C@@H]1C [Compound 12] | Neither compound was cytotoxic | < 100
